Patent publication US6455518B2 (Novartis AG, priority 1996, dated 2002)

How the values were obtained:
[1] = system: Spleen cells of BALB/c and CBA mice; test: two-way mouse mixed lymphocyte reaction (3H-thymidine incorporation); type: cell-based; settings: single compound; 3H-thymidine incorporation after four days culture
Method: After four days, ^3H-thymidine is added. Sixteen hours later, the cells are harvested and ^3H-thymidine incorporation is measured by liquid scintillation counting. Cell proliferation is assessed in the absence of compounds (100% value) or in the presence of serially diluted compounds or combinations of compounds. The maximum ^3H thymidine incorporation (100% value) is around 240×10^3 cpm, and the background ^3H-thymidine incorporation in unstimulated cells is around 5×10^3 cpm. […] These IC70 values are converted into relative units with regard to the IC70 value of the respective single drug treatment.

[2] = system: kidney allograft; test: orthotopic kidney allotransplantation model (DA donor, Lewis recipient); type: in vivo, rat; settings: for Histology of rejection: kidney
Text: Kidney transplantation is followed by contralateral nephrectomy 7 days later: at nephrectomy, the graft is macroscopically inspected, and if rejection is macroscopically evident, the experiment is terminated. Surviving animals are monitored daily for clinical signs of renal dysfunction.
(§1) In both the kidney and heart allograft experiments, the termination point in long term survivors is 100 days. In all cases, the graft is removed at autopsy, fixed in buffered formalin, and embedded in paraffin. Four micron thick sections stained with hematoxylin and eosin are read for signs of rejection and scored as “no rejection”, or “marginal”, “slight”, “moderate”, or “severe” cellular rejection based on the extent of mononuclear cell infiltration and damage to the parenchyma (tubules in the kidney, myocytes in the heart).

[3] = system: heart allograft; test: heterotopic heart allotransplantation model (DA donor, Lewis recipient); type: in vivo, rat
Text: The abdomen is then palpated daily to determine if the graft is still beating; in case of cessation of heartbeat, the experiment is terminated.
as §1

[4] = rat, in vivo, iv
Method: Whole blood concentrations of both compounds are determined by liquid chromatography-reversed isotope dilution (LC-RID).

[5] = heart, 40-O-(2-hydroxyethyl)-rapamycin 5.0 mg/kg daily oral

**Q.** For `CO[C@H]1C[C@@H]2CC[C@@H](C)[C@@](O)(O2)C(=O)C(=O)N2CCCC[C@H]2C(=O)O[C@H]([C@H](C)C[C@@H]2CC[C@@H](OCCO)[C@H](OC)C2)CC(=O)[C@H](C)/C=C(\C)[C@@H](O)[C@@H](OC)C(=O)[C@H](C)C[C@H](C)/C=C/C=C/C=C/1C` [40-O-(2-hydroxyethyl)-rapamycin], which “IC70 (concentration at which the maximum proliferative response is inhibited by 70%)” value [1] is on record?
**A.** The value was 0.3 nM.

**Q.** And the “minimum effective dose giving long term allograft survival” value ([2]; kidney allograft, single compound treatment, daily oral)?
**A.** The value was 5.0 mg/kg.

**Q.** And the Histology of rejection ([2]; 40-O-(2-hydroxyethyl)-rapamycin 1.0 mg/kg daily oral)?
**A.** The Histology of rejection was “moderate-severe”.

**Q.** What about the Histology of rejection ([2]; 40-O-(2-hydroxyethyl)-rapamycin 2.5 mg/kg daily oral) of the same compound?
**A.** Its Histology of rejection is “slight-moderate”.

**Q.** And the Histology of rejection ([2]; 40-O-(2-hydroxyethyl)-rapamycin 5.0 mg/kg daily oral)?
**A.** Its Histology of rejection is “moderate; ≧100 marginal”.

**Q.** What about the “minimum effective dose giving long term allograft survival” value ([3]; heart allograft, single compound treatment, daily oral) of the same compound?
**A.** Its value is over 5.0 mg/kg.

**Q.** What about the Histology of rejection ([3]; heart, 40-O-(2-hydroxyethyl)-rapamycin 1.0 mg/kg daily oral) of the same compound?
**A.** The Histology of rejection was “severe”.

**Q.** And the Histology of rejection ([3]; heart, 40-O-(2-hydroxyethyl)-rapamycin 2.5 mg/kg daily oral)?
**A.** Its Histology of rejection is “moderate”.

**Q.** And the Histology of rejection [3, 5]?
**A.** Its Histology of rejection is “moderate”.

**Q.** And the “Survival (days)” value [3, 5]?
**A.** Its value is 22,23 days.

**Q.** And the CL [4]?
**A.** Its CL is 3.2 ± 0.3 mL/min.

**Q.** What about the t1/2 [4] of the same compound?
**A.** The t1/2 was 56 ± 7 h.

**Q.** And the V ([4]; 1 mg/kg)?
**A.** The V was 52 ± 3 L/kg.
